For 18 compounds, IC50 results are on record in patent publication US20240050428A1 (Cullgen (Shanghai), Inc., priority 2020, published 2024).

One assay relates to MV4;11 cells. The assay can be described thus: Cell viability assay (CellTiter-Glo) in MV4;11 cells, alone or with gilteritinib. In kind it is cell-based. Conditions: Homo sapiens, MV4-11, 72 h, MV4;11 cells, three days, CellTiter-Glo, read-out: MV4. A general note: ATP-based viability assays read luminescence as a measure of living cells.
For another assay, the system named is MOLM-13 cells. Nature of the assay: Cell viability assay (CellTiter-Glo) in MOLM-13 cells, alone or with gilteritinib. In kind it is cell-based. Conditions: Homo sapiens, MOLM-13, 72 h, MOLM-13 cells, three days, CellTiter-Glo.
The mark [1] stands for this setting: compound alone (without gilteritinib), 11 IC50.
[2] abbreviates: compound with gilteritinib 10 nM, 11 IC50 gilteritinib.
Setting [3] is: compound alone (without gilteritinib), read-out: MOLM-13 IC50.
The mark [4] stands for this setting: compound with gilteritinib 20 nM, read-out: MOLM-13 IC50 gilteritinib.

Where two headings read alike, the source gives them in different places.

Take `CC(C)n1ncc2c(-c3cn([C@H]4C[C@H](CNc5ccc6c(c5)C(=O)N(C5CCC(=O)NC5=O)C6=O)C4)nc3C3CC3)nccc21` (stereo partly drawn) [GS-612, 5-(((trans-3-(3-Cyclopropyl-4-(1-isopropyl-1H-pyrazolo[4,3-c]pyridin-4-yl)-1H-pyrazol-1-yl)cyclobutyl)methyl)amino)-2-(2,6-dioxopiperidin-3-yl)isoindoline-1,3-dione]: the IC50 with MV4;11 cells (setting [1]), in the assay with MV4;11 cells (setting [2]), in the assay on MOLM-13 cells (setting [3]) and in the assay on MOLM-13 cells (setting [4]) was below 10 nM each time.
As to `Cn1ncc2cnc(-c3cn([C@H]4C[C@H](CNc5ccc6c(c5)C(=O)N(C5CCC(=O)NC5=O)C6=O)C4)nc3C3CC3)cc21` (stereo partly drawn) [GS-613, 5-(((trans-3-(3-Cyclopropyl-4-(1-methyl-1H-pyrazolo[4,3-c]pyridin-6-yl)-1H-pyrazol-1-yl)cyclobutyl)methyl)amino)-2-(2,6-dioxopiperidin-3-yl)isoindoline-1,3-dione], the IC50 in the assay on MV4;11 cells (setting [1]) was below 10 nM; with MV4;11 cells (setting [2]), below 10 nM; in the assay with MOLM-13 cells (setting [3]), 10 to 100 nM; in the assay on MOLM-13 cells (setting [4]), below 10 nM.
As to `CC(C)n1ncc2cnc(-c3cn([C@H]4C[C@H](CNc5ccc6c(c5)C(=O)N(C5CCC(=O)NC5=O)C6=O)C4)nc3C3CC3)cc21` (stereo partly drawn) [GS-614, 5-(((trans-3-(3-Cyclopropyl-4-(1-isopropyl-1H-pyrazolo[4,3-c]pyridin-6-yl)-1H-pyrazol-1-yl)cyclobutyl)methyl)amino)-2-(2,6-dioxopiperidin-3-yl)isoindoline-1,3-dione], the IC50 with MV4;11 cells (setting [1]) was below 10 nM; with MV4;11 cells (setting [2]) it was below 10 nM; in the assay on MOLM-13 cells (setting [3]), 10 to 100 nM; in the assay on MOLM-13 cells (setting [4]), below 10 nM.
For `Cn1ccc2c(-c3cn([C@H]4C[C@H](CNc5ccc6c(c5)C(=O)N(C5CCC(=O)NC5=O)C6=O)C4)nc3C3CC3)nccc21` (stereo partly drawn) [GS-615, 5-(((trans-3-(3-Cyclopropyl-4-(1-methyl-1H-pyrrolo[3,2-c]pyridin-4-yl)-1H-pyrazol-1-yl)cyclobutyl)methyl)amino)-2-(2,6-dioxopiperidin-3-yl)isoindoline-1,3-dione], the IC50 in the assay with MV4;11 cells (setting [1]) was 10 to 100 nM; in the assay on MV4;11 cells (setting [2]), below 10 nM; with MOLM-13 cells (setting [3]) it was 10 to 100 nM; with MOLM-13 cells (setting [4]), below 10 nM.
With `O=C1CCC(N2C(=O)c3ccc(NC[C@H]4C[C@H](n5cc(-c6ccc7c(n6)CCC7)c(C6CC6)n5)C4)cc3C2=O)C(=O)N1` (stereo partly drawn) [GS-616, 5-(((trans-3-(3-Cyclopropyl-4-(6,7-dihydro-5H-cyclopenta[b]pyridin-2-yl)-1H-pyrazol-1-yl)cyclobutyl)methyl)amino)-2-(2,6-dioxopiperidin-3-yl)isoindoline-1,3-dione], the IC50 in the assay with MV4;11 cells (setting [1]) is 10 to 100 nM; in the assay on MV4;11 cells (setting [2]), below 10 nM; with MOLM-13 cells (setting [3]), 10 to 100 nM; with MOLM-13 cells (setting [4]), below 10 nM.
For the compound `CN1CCC(Nc2cccnc2-c2cn([C@H]3C[C@H](CNc4ccc5c(c4)C(=O)N(C4CCC(=O)NC4=O)C5=O)C3)nc2C2CC2)CC1` (stereo partly drawn) [GS-617, 5-(((trans-3-(3-Cyclopropyl-4-(3-((1-methylpiperidin-4-yl)amino)pyridin-2-yl)-1H-pyrazol-1-yl)cyclobutyl)methyl)amino)-2-(2,6-dioxopiperidin-3-yl)isoindoline-1,3-dione], the IC50 with MV4;11 cells (setting [1]), in the assay with MV4;11 cells (setting [2]), in the assay with MOLM-13 cells (setting [3]) and in the assay with MOLM-13 cells (setting [4]) was above 1000 nM throughout.
As for `Cn1ccc2cnc(-c3cn([C@H]4C[C@H](CNc5ccc6c(c5)C(=O)N(C5CCC(=O)NC5=O)C6=O)C4)nc3C3CC3)cc21` (stereo partly drawn) [GS-618, 5-(((trans-3-(3-Cyclopropyl-4-(1-methyl-1H-pyrrolo[3,2-c]pyridin-6-yl)-1H-pyrazol-1-yl)cyclobutyl)methyl)amino)-2-(2,6-dioxopiperidin-3-yl)isoindoline-1,3-dione], the IC50 is below 10 nM in the assay on MV4;11 cells (setting [1]), below 10 nM in the assay with MV4;11 cells (setting [2]), 10 to 100 nM with MOLM-13 cells (setting [3]) and below 10 nM in the assay on MOLM-13 cells (setting [4]).
In the case of `CN1CC(c2cccc(-c3cn([C@H]4C[C@H](CNc5ccc6c(c5)C(=O)N(C5CCC(=O)NC5=O)C6=O)C4)nc3C3CC3)n2)C1` (stereo partly drawn) [GS-619, 5-(((trans-3-(3-Cyclopropyl-4-(6-(1-methylazetidin-3-yl)pyridin-2-yl)-1H-pyrazol-1-yl)cyclobutyl)methyl)amino)-2-(2,6-dioxopiperidin-3-yl)isoindoline-1,3-dione], the IC50 with MV4;11 cells (setting [1]), in the assay with MV4;11 cells (setting [2]), in the assay with MOLM-13 cells (setting [3]) and in the assay on MOLM-13 cells (setting [4]) was above 1000 nM throughout.
Consider `CNc1cccnc1-c1cn([C@H]2C[C@H](CNc3ccc4c(c3)C(=O)N(C3CCC(=O)NC3=O)C4=O)C2)nc1C1CC1` (stereo partly drawn) [GS-620, 5-(((trans-3-(3-Cyclopropyl-4-(3-(methylamino)pyridin-2-yl)-1H-pyrazol-1-yl)cyclobutyl)methyl)amino)-2-(2,6-dioxopiperidin-3-yl)isoindoline-1,3-dione], for which the IC50 in the assay on MV4;11 cells (setting [1]) was 10 to 100 nM; in the assay on MV4;11 cells (setting [2]), below 10 nM; with MOLM-13 cells (setting [3]), 100 to 1000 nM; in the assay with MOLM-13 cells (setting [4]) it was below 10 nM.
Turning to `CN(C)c1cccnc1-c1cn([C@H]2C[C@H](CNc3ccc4c(c3)C(=O)N(C3CCC(=O)NC3=O)C4=O)C2)nc1C1CC1` (stereo partly drawn) [GS-621, 5-(((trans-3-(3-Cyclopropyl-4-(3-(dimethylamino)pyridin-2-yl)-1H-pyrazol-1-yl)cyclobutyl)methyl)amino)-2-(2,6-dioxopiperidin-3-yl)isoindoline-1,3-dione], the IC50 was 10 to 100 nM in the assay on MV4;11 cells (setting [1]), below 10 nM in the assay on MV4;11 cells (setting [2]), 10 to 100 nM with MOLM-13 cells (setting [3]) and below 10 nM with MOLM-13 cells (setting [4]).
For the compound `CC(C)n1ccc2cnc(-c3cn([C@H]4C[C@H](CNc5ccc6c(c5)C(=O)N(C5CCC(=O)NC5=O)C6=O)C4)nc3C3CC3)cc21` (stereo partly drawn) [GS-622, 5-(((trans-3-(3-Cyclopropyl-4-(1-isopropyl-1H-pyrrolo[3,2-c]pyridin-6-yl)-1H-pyrazol-1-yl)cyclobutyl)methyl)amino)-2-(2,6-dioxopiperidin-3-yl)isoindoline-1,3-dione], the IC50 in the assay with MV4;11 cells (setting [1]) is 10 to 100 nM; in the assay on MV4;11 cells (setting [2]) it was below 10 nM; with MOLM-13 cells (setting [3]), 10 to 100 nM; with MOLM-13 cells (setting [4]), below 10 nM.
Consider `CC(C)n1ccc2c(-c3cn([C@H]4C[C@H](CNc5ccc6c(c5)C(=O)N(C5CCC(=O)NC5=O)C6=O)C4)nc3C3CC3)nccc21` (stereo partly drawn) [GS-623, 5-(((trans-3-(3-Cyclopropyl-4-(1-isopropyl-1H-pyrrolo[3,2-c]pyridin-4-yl)-1H-pyrazol-1-yl)cyclobutyl)methyl)amino)-2-(2,6-dioxopiperidin-3-yl)isoindoline-1,3-dione], for which the IC50 with MV4;11 cells (setting [1]) was 10 to 100 nM; in the assay on MV4;11 cells (setting [2]), below 10 nM; with MOLM-13 cells (setting [3]), 10 to 100 nM; in the assay with MOLM-13 cells (setting [4]), below 10 nM.
For the compound `O=C1CCC(N2C(=O)c3ccc(NC[C@H]4C[C@H](n5cc(-c6cnc7c(C8CNC8)cccc7n6)c(C6CC6)n5)C4)cc3C2=O)C(=O)N1` (stereo partly drawn) [GS-624, 5-(((trans-3-(4-(5-(Azetidin-3-yl)quinoxalin-2-yl)-3-cyclopropyl-1H-pyrazol-1-yl)cyclobutyl)methyl)amino)-2-(2,6-dioxopiperidin-3-yl)isoindoline-1,3-dione], the IC50 with MV4;11 cells (setting [1]) is 100 to 1000 nM; with MV4;11 cells (setting [2]) it was 10 to 100 nM; in the assay on MOLM-13 cells (setting [3]) it was above 1000 nM; with MOLM-13 cells (setting [4]), 10 to 100 nM.
As to `O=C1CCC(N2C(=O)c3ccc(NCCC[C@H]4C[C@H](n5cc(-c6nccc7cccnc67)c(C6CC6)n5)C4)cc3C2=O)C(=O)N1` (stereo partly drawn) [GS-625, 5-((3-(trans-3-(3-Cyclopropyl-4-(1,7-naphthyridin-8-yl)-1H-pyrazol-1-yl)cyclobutyl)propyl)amino)-2-(2,6-dioxopiperidin-3-yl)isoindoline-1,3-dione], the IC50 with MV4;11 cells (setting [1]) was 10 to 100 nM; with MV4;11 cells (setting [2]) it was below 10 nM; with MOLM-13 cells (setting [3]), 100 to 1000 nM; in the assay on MOLM-13 cells (setting [4]) it was 10 to 100 nM.
As for `O=C1CCC(N2C(=O)c3ccc(NCCC[C@H]4C[C@H](n5cc(-c6nccc7[nH]ncc67)c(C6CC6)n5)C4)cc3C2=O)C(=O)N1` (stereo partly drawn) [GS-626, 5-((3-(trans-3-(3-Cyclopropyl-4-(1H-pyrazolo[4,3-c]pyridin-4-yl)-1H-pyrazol-1-yl)cyclobutyl)propyl)amino)-2-(2,6-dioxopiperidin-3-yl)isoindoline-1,3-dione], the IC50 in the assay with MV4;11 cells (setting [1]) is 10 to 100 nM; in the assay with MV4;11 cells (setting [2]), 10 to 100 nM; with MOLM-13 cells (setting [3]), above 1000 nM; in the assay on MOLM-13 cells (setting [4]), 10 to 100 nM.
On to `O=C1CCC(N2C(=O)c3ccc(CC[C@H]4C[C@H](n5cc(-c6cnc7ccccc7n6)c(C6CC6)n5)C4)cc3C2=O)C(=O)N1` (stereo partly drawn) [GS-627, 5-(2-(trans-3-(3-Cyclopropyl-4-(quinoxalin-2-yl)-1H-pyrazol-1-yl)cyclobutyl)ethyl)-2-(2,6-dioxopiperidin-3-yl)isoindoline-1,3-dione], for which the IC50 in the assay with MV4;11 cells (setting [1]), in the assay on MV4;11 cells (setting [2]), in the assay on MOLM-13 cells (setting [3]) and with MOLM-13 cells (setting [4]) was above 1000 nM throughout.
As to `O=C1CCC(N2C(=O)c3ccc(NCCC[C@H]4C[C@H](n5cc(-c6nccc7cnccc67)c(C6CC6)n5)C4)cc3C2=O)C(=O)N1` (stereo partly drawn) [GS-628, 5-((3-(trans-3-(3-Cyclopropyl-4-(2,6-naphthyridin-1-yl)-1H-pyrazol-1-yl)cyclobutyl)propyl)amino)-2-(2,6-dioxopiperidin-3-yl)isoindoline-1,3-dione], the IC50 in the assay on MV4;11 cells (setting [1]) was above 1000 nM; with MV4;11 cells (setting [2]) it was 10 to 100 nM; in the assay with MOLM-13 cells (setting [3]), above 1000 nM; in the assay on MOLM-13 cells (setting [4]), 10 to 100 nM.
With `Cc1nc(-c2cn([C@H]3C[C@H](CCc4ccc5c(c4)C(=O)N(C4CCC(=O)NC4=O)C5=O)C3)nc2C2CC2)ccc1F` (stereo partly drawn) [GS-629, 5-(2-(trans-3-(3-Cyclopropyl-4-(5-fluoro-6-methylpyridin-2-yl)-1H-pyrazol-1-yl)cyclobutyl)ethyl)-2-(2,6-dioxopiperidin-3-yl)isoindoline-1,3-dione], the IC50 with MV4;11 cells (setting [1]) is above 1000 nM; with MV4;11 cells (setting [2]), 100 to 1000 nM; with MOLM-13 cells (setting [3]), above 1000 nM; in the assay with MOLM-13 cells (setting [4]), 100 to 1000 nM.
